In general, inhibition refers to the percentage by which the read-out fell short of the control.

Test [1] relates to human umbilical-vein endothelial cells (HUVEC). Nature of the test: Tube Formation Assay (TFA) Test, HUVEC in collagen gel. The test is classed as cell-based. The settings on record: Homo sapiens, HUVEC, Tables 75-83; 0.32 mM sample solution; method as for Compounds 1 through 60; read-out: TFA Inhibition rate (%). In short, it runs like this:
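HUVEC (7th subculture, 1×10^5 cells/ml) attached to collagen gel for 2 h at 37 °C, given sample and overlaid with collagen, then cultured 20 h at 37 °C, 5% CO2 in M-199 with 20% FCS, 30 ng/ml b-FGF and 0.1 μM PMA. Tube length measured by image analysis; % inhibition relative to positive and negative controls.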

For a further test, the system named is HUFEC. Description: Cell Migration Assay (CMA) Test, inhibitory rate with control (-) correction. The class given is cell-based, human. The settings on record: Homo sapiens, 24 h, 125 μl of 0.32 mM sample solution in 4.0 ml medium, 80% or more = remarkable. In short, it runs like this: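 Confluent HUFEC monolayers were scratch-wounded, then cultured 24 h at 37 °C, 5% CO2 in M199 (2+) medium with compound added as 125 μl of a 0.32 mM solution (3.2% DMSO) per 4 ml. Giemsa-stained cells migrating into 1 mm×1 mm blocks counted; inhibition % calculated relative to control (+) and control (−) wells.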

`COC(=O)C1=CO[C@@H](OC(=O)N(CCO)CCO)[C@H]2[C@@H]1CC[C@@H]2C` [I-240]: the inhibition at 320 µM (stock) was determined as 7.4% in test [1] and 8.5% in the test with HUFEC.
Taken in the same sequence, the figures for `CNC(=O)O[C@@H]1OC=C(C(=O)N2C[C@@H](C)O[C@@H](C)C2)[C@H]2CC=C(C)[C@@H]12` [I-311] were 10.7% and 7.6%.
Taken in the same sequence, the figures for `COCCCNC(=O)O[C@@H]1OC=C(C(=O)OC)[C@H]2CC[C@H](C)[C@@H]12` [I-226] were 15.3% and 17.2%.
Taken in the same sequence, the figures for `COC(=O)C1=CO[C@@H](OC(=O)NCc2ccncc2)[C@@H]2C(C)=CC[C@H]12` [I-116] were 6.9% and 5.6%.
For `CNC(=O)O[C@@H]1OC=C(C(=O)NCc2nc3ccccc3[nH]2)[C@H]2C[C@@H]3O[C@]3(C)[C@@H]12` [I-63], the inhibition at 320 µM (stock) in test [1] amounted to 41.7%; with HUFEC, 14.2%.
Take `CNC(=O)O[C@@H]1OC=C(C(=O)O)[C@H]2CC[C@@H](C)[C@@H]12` [I-281]: the inhibition at 320 µM (stock) in test [1] turned out to be 31.1%; with HUFEC it was 27.9%.
For the compound `COC(=O)C1=CO[C@@H](OC(=O)NC2Cc3ccccc3C2)[C@@H]2C(C)=CC[C@H]12` [I-145], the inhibition at 320 µM (stock) in test [1] was 17.5%; with HUFEC, 27.3%.
Taken in the same sequence, the figures for `COC(=O)C1=CO[C@@H](OC(=O)NCCc2ccc(F)cc2)[C@@H]2C(C)=CC[C@H]12` [I-107] were 4.4% and 31.2%.
Taken in the same sequence, the figures for `CC1=CC[C@@H]2C(C(=O)O)=CO[C@@H](OC(=O)Nc3ccc(F)cc3F)[C@H]12` [I-308] were 23.2% and 32.1%.
Taken in the same sequence, the figures for `COC(=O)C1=CO[C@@H](OC(=O)Nc2ccc(F)cc2)[C@H]2[C@@H]1CC[C@@H]2C` [I-264] were 29.2% and 6.7%.
Regarding `COC(=O)C1=CO[C@@H](OC(=O)NCC#N)[C@@H]2C(C)=CC[C@H]12` [I-132], the inhibition at 320 µM (stock) in test [1] was found to be 3.9%; in the test with HUFEC, 15.6%.
In the case of `COC(=O)C1=CO[C@@H](OC(=O)N2CC=CCC2)[C@@H]2C(C)=CC[C@H]12` [I-91], the inhibition at 320 µM (stock) worked out at 5.1% in test [1] and 21.6% in the test on HUFEC.
Taken in the same sequence, the figures for `COC(=O)C1=CO[C@@H](OC(=O)Nc2ccc(Cl)cc2)[C@@H]2C(C)=CC[C@H]12` [I-162] were 7.5% and 8.9%.
Taken in the same sequence, the figures for `COC(=O)C1=CO[C@@H](OC(=O)N(C)CC2OCCO2)[C@H]2[C@@H]1CC[C@@H]2C` [I-198] were 2.9% and 7.9%.
Taken in the same sequence, the figures for `COC(=O)C1=CO[C@@H](OC(=O)NCCCc2ccccc2)[C@H]2[C@@H]1CC[C@@H]2C` [I-217] were 7.2% and 9.4%.
For the compound `COC(=O)C1=CO[C@@H](OC(=O)NCCSCc2ccccc2)[C@H]2[C@@H]1CC[C@@H]2C` [I-253], the inhibition at 320 µM (stock) in test [1] turned out to be 5.7%; in the test with HUFEC, 25.1%.
As to `COC(=O)C1=CO[C@@H](OC(=O)N2CCN(CCO)CC2)[C@H]2[C@@H]1CC[C@@H]2C` [I-180], the inhibition at 320 µM (stock) in test [1] was determined as 7.7%; in the test on HUFEC, 50%.
Taken in the same sequence, the figures for `COC(=O)C1=CO[C@@H](OC(=O)NCc2ccc(OC)cc2)[C@H]2[C@@H]1CC[C@@H]2C` [I-186] were 5.5% and 6.3%.
Taken in the same sequence, the figures for `CCOc1ccccc1N1CCN(C(=O)O[C@@H]2OC=C(C(=O)OC)[C@H]3CC=C(C)[C@@H]23)CC1` [I-141] were 23.1% and 12.5%.
Taken in the same sequence, the figures for `COC(=O)C1=CO[C@@H](OC(=O)NCc2ccc(Cl)c(Cl)c2)[C@@H]2C(C)=CC[C@H]12` [I-74] were 5.8% and 23.4%.
For `COC(=O)C1=CO[C@@H](OC(=O)NCCN2CCCCC2)[C@H]2[C@@H]1CC[C@@H]2C` [I-223], the values for the inhibition at 320 µM (stock) (in test [1]; with HUFEC) were 17.9% and 18.8%, respectively.
Taken in the same sequence, the figures for `COC(=O)C1=CO[C@@H](OC(=O)NCCc2c[nH]c3ccccc23)[C@@H]2C(C)=CC[C@H]12` [I-115] were 6.8% and 3.1%.
Taken in the same sequence, the figures for `COC(=O)C1=CO[C@@H](OC(=O)NCc2ccc(Br)cc2)[C@H]2[C@@H]1CC[C@@H]2C` [I-245] were 6.3% and 27.3%.
Taken in the same sequence, the figures for `COC(=O)C1=CO[C@@H](OC(=O)NC2CCCCCC2)[C@H]2[C@@H]1CC[C@@H]2C` [I-208] were 8.2% and 7.6%.
For the compound `COC(=O)C1=CO[C@@H](OC(=O)Nc2ccc(OC)cc2)[C@@H]2C(C)=CC[C@H]12` [I-161], the inhibition at 320 µM (stock) in test [1] came to 8.2%; in the test on HUFEC, 14.4%.
Taken in the same sequence, the figures for `COC(=O)C1=CO[C@@H](OC(=O)Nc2ccc(OC(F)(F)F)cc2)[C@@H]2C(C)=CC[C@H]12` [I-165] were 7.5% and 12.5%.
Consider `CNC(=O)O[C@@H]1OC=C(C(=O)OC)[C@H]2CC=C(CF)C12` (stereo in doubt) [I-314, (1S,4aS,7aR)-7-(fluoromethyl)-1-(methylcarbamoyloxy)-1,4a,5,7a-tetrahydrocyclopenta [c] pyrane-4-carboxylic acid methylester], for which the figures for the inhibition at 320 µM (stock) (in test [1]; with HUFEC) were 9.4% and 47.2%, respectively.
Taken in the same sequence, the figures for `COC(=O)C1=CO[C@@H](OC(=O)N2CCc3ccccc3C2)[C@H]2[C@@H]1CC[C@@H]2C` [I-225] were 5.5% and 25%.
Taken in the same sequence, the figures for `CNC(=O)OCC1=CC[C@@H]2C(C(=O)OC)=COC[C@H]12` [I-295] were 7.9% and 5.6%.
Taken in the same sequence, the figures for `COC(=O)C1=CO[C@@H](OC(=O)NCC2CCCCC2)[C@H]2[C@@H]1CC[C@@H]2C` [I-191] were 6% and 8%.
On to `CCCCCCC1CC[C@@H]2C(C(=O)OC)=COC[C@H]12` (stereo partly shown) [I-294], for which the inhibition at 320 µM (stock) is 7.8% in test [1] and 4.5% in the test on HUFEC.
Taken in the same sequence, the figures for `COC(=O)C1=CO[C@@H](OC(=O)Nc2ccc([N+](=O)[O-])cc2)[C@H]2[C@@H]1CC[C@@H]2C` [I-269] were 8.3% and 19.5%.
Taken in the same sequence, the figures for `CCN(CCO)C(=O)O[C@@H]1OC=C(C(=O)OC)[C@H]2CC[C@H](C)[C@@H]12` [I-203] were 15.8% and 5.9%.
Taken in the same sequence, the figures for `COC(=O)C1=CO[C@@H](OC(=O)Nc2cccc(C(F)(F)F)c2)[C@@H]2C(C)=CC[C@H]12` [I-160] were 13.8% and 6.3%.
With `CNC(=O)OC[C@]12O[C@H]1C[C@@H]1C(C(=O)OC)=COC[C@@H]12` [I-290], the inhibition at 320 µM (stock) in test [1] is 13.5%; in the test with HUFEC, 51.5%.
Taken in the same sequence, the figures for `COC(=O)C1=CO[C@@H](OC(=O)Nc2ccc(Cl)cc2)[C@H]2[C@@H]1CC[C@@H]2C` [I-260] were 2.5% and 8.9%.
Taken in the same sequence, the figures for `COC(=O)C1=CO[C@@H](OC(=O)NCc2cccc(C(F)(F)F)c2)[C@H]2[C@@H]1CC[C@@H]2C` [I-233] were 4.1% and 5.5%.
`COC(=O)C1=CO[C@@H](OC(=O)NCCSCc2ccccc2)[C@@H]2C(C)=CC[C@H]12` [I-150]: the inhibition at 320 µM (stock) in test [1] was 32.3%; in the test with HUFEC it was 5.4%.
Taken in the same sequence, the figures for `COC(=O)C1=CO[C@@H](OC(=O)NCCCc2ccccc2)[C@@H]2C(C)=CC[C@H]12` [I-112] were 7.9% and 6.8%.
Taken in the same sequence, the figures for `COC(=O)C1=CO[C@H](OC(=S)N(C)C)[C@H]2[C@@H]1C[C@@H]1O[C@]21C` [I-285] were 7.7% and 6.5%.
Taken in the same sequence, the figures for `COC(=O)C1=CO[C@@H](OC(=O)NCCc2cccs2)[C@@H]2C(C)=CC[C@H]12` [I-92] were 15.2% and 8.1%.
`COC(=O)C1=CO[C@@H](OC(=O)Nc2ccc(Cl)c(Cl)c2)[C@H]2[C@@H]1CC[C@@H]2C` [I-255]: the inhibition at 320 µM (stock) came to 6% in test [1] and 6.5% in the test on HUFEC.
Consider `COC(=O)C1=COC[C@@H]2C(CSc3nc4ccccc4s3)=CC[C@H]12` [I-292], for which the inhibition at 320 µM (stock) in test [1] stood at 23.5%; in the test on HUFEC, 57.9%.
Taken in the same sequence, the figures for `COC(=O)C1=CO[C@@H](OC(=O)N2CCC2)[C@@H]2C(C)=CC[C@H]12` [I-148] were 5.1% and 3.4%.
Taken in the same sequence, the figures for `COC(=O)C1=CO[C@@H](OC(=O)Nc2ccc(Br)cc2)[C@H]2[C@@H]1CC[C@@H]2C` [I-259] were 2.9% and 5%.
Taken in the same sequence, the figures for `COC(=O)C1=CO[C@@H](OC(=O)NCc2ccc(F)cc2F)[C@H]2[C@@H]1CC[C@@H]2C` [I-195] were 3.7% and 15.7%.
On to `COC(=O)C1=CO[C@@H](OC(=O)Nc2ccccc2)[C@H]2[C@@H]1CC[C@@H]2C` [I-271], for which the results for the inhibition at 320 µM (stock) (in test [1]; in the test with HUFEC) were 35.1% and 21.6%, respectively.

These data come from patent US6225478A, “Iridoid derivatives and neovascularization inhibitors containing the same as active ingredient” (Tsumura & Co., priority 1999, dated 2001).
